The subject of experiment [1] is PDGFBB stimulated phosphorylation of ERK1 and ERK2. In words: PDGFBB stimulated phosphorylation of ERK1 and ERK2 in human fetal lung fibroblasts. The format is cell-based. Conditions: for PDGFBB stimulated ppERK1 formation: 1 uM.
The test system of experiment [2] is PDGFAA stimulated phosphorylation of ERK1 and ERK2. In words: PDGFAA stimulated phosphorylation of ERK1 and ERK2 in human fetal lung fibroblasts. Type of experiment: cell-based. To be noted: 1 uM.
The subject of another experiment is rat MCT+PN model. In words: Telemetry study of PA pressure in the rat MCT+PN model. The format is in vivo. To be noted: for PA systolic pressure: imatinib telemetry study (study 4), 8 min 3x/day. The method, then:
Efficacy study in the rat MCT+PN model. Pneumonectomy and implantation of a TRM53P telemetry monitor in the pulmonary artery (Telemetry Research, New Zealand and ADlnstruments, Colorado) was carried out in rats. Two weeks after MCT, PK10453 (Structure 2) was administered three times daily for 1 week. […] Sampling of PA pressure was performed 5 min before each morning dose in ambulatory animals in room air (estimated atmospheric pressure 716 mm Hg based on elevation of animal facility). […] Telemetry data was obtained for 10 min daily before each morning dose for this protocol.

The subject of another experiment is AKT phosphorylation. Conditions: 0.1 μM; PASMC from control and monocrotaline treated rats; cited from earlier work.
Experiment [3] deals with PDGFBB stimulated AKT phosphorylation (SER473). To be noted: 5 μM; PDGFRβ null and PDGFRα null cell lines; cited from earlier work.
Experiment [4] concerns PDGFBB stimulated AKT phosphorylation. As to the kind of experiment: In cell Western (ICW), PDGFBB stimulated AKT phosphorylation in human fetal lung fibroblasts. Type of experiment: cell-based. To be noted: comparison in words. The method, then: In cell Western (ICW). […] HLFs were maintained in subculture at no more than 6 passages in DMEM with 5% FBS and 4 mM Glutamax at 37° C., 5% CO2. HLFs were plated and grown to 70-80% confluence in 96 well plates then serum-starved for 48 hours. […] Antibodies were detected using IRDye 680LT goat anti-mouse IgG and IRDye 800W goat a-rabbit IgG conjugated antibodies. After washing, the signal was quantified using an Odyssey Infrared Imaging System (LI-COR). Phosphoprotein signal (800 nm) was normalized to total protein signal (700 nm) acquired from each well and experimental duplicates on same plate were averaged and reported.

Method for rat MCT model: At the end of the study RVSP pressure was measured; lung and heart fixed in formalin. For measurement of RVSP animals were sedated with isoflurane, intubated via a tracheostomy, and ventilated with a TOPOVENT pressure regulated ventilator (peak inspiratory pressure 18 cm H2O, PEEP 5 cm). After sternotomy, a Scisense high fidelity catheter inserted via the RV apex.
Histology and morphometric analysis. At the end of the study, the heart and lungs were removed from ventilated animals under general anesthesia. Heparinized saline was infused under pressure through the main pulmonary artery. […] The heart was removed, and the RV free wall, interventricular septum and LV free wall dissected and weighed. Buffered formalin (10%) was infused under pressure both through the pulmonary artery and the trachea. Morphometric analysis was performed on H&E stained formalin fixed tissue sectioned at 8 μm. The media area and lumen area of pulmonary arterioles were measured with Image J software by a technician blinded to treatment group. Measurements were made on 20 pulmonary arterioles per section. The ratio of the lumen area to the total media area was determined This ratio normalizes the variation in total pulmonary arteriole area. […] Briefly, pre-capillary arterioles were assigned grade 0 for no evidence of neointimal lesions, grade 1 for less than 50% luminal occlusion, and grade 2 for greater than 50% occlusion.

Turning to `Cc1ccc(NC(=O)c2ccc(CN3CCN(C)CC3)cc2)cc1Nc1nccc(-c2cccnc2)n1` [Imatinib], the “PDGFBB stimulated ppERK1 formation” value in experiment [1] is reported as “no effect”. In addition, the “decreasing PDGF AA stimulated ppERK1 and ppERK2 formation” value in experiment [2] is listed as “equally effective”. For the same molecule, the “efficacy in the MCT+PN model, in words” value in the experiment on rat MCT+PN model (by inhalation) is “not effective”. In addition, the PA systolic pressure in the experiment on rat MCT+PN model (day 1) was 41.5±3.5 mm Hg; in the experiment on rat MCT+PN model (treatment day 9), 75.1±7 mm Hg. Further, the “phosphorylation of AKT at Thr308” value in the experiment on AKT phosphorylation is recorded as “no effect”. Further, the “RV end systolic pressure” value in the experiment with rat MCT model (8 min inhalation 3x/day, two weeks) amounted to 31.8±1.8 mm Hg. Further, the “efficacy in the MCT model, in words” value in the experiment on rat MCT model (given by inhalation) is given as “equally effective”. Besides, the “PDGFBB stimulated AKT phosphorylation (SER473)” value in experiment [3] is reported as “blocked”.

As to `COc1cc(-c2cncc(N[C@@H](C)c3cccc(NC(=O)c4cnc(C#N)nc4)c3)n2)ccc1O` [PK10467], the “IC50 for inhibiting PDGFBB stimulated AKT phosphorylation, compared to imatinib” value in experiment [4] is “lower IC50 concentrations compared to imatinib”.

With `C=CS(=O)(=O)NCc1ccc(C(=O)Nc2cccc([C@H](C)Nc3cncc(-c4ccc(O)c(OC)c4)n3)c2)cc1` [PK10468], in experiment [4], the “IC50 for inhibiting PDGFBB stimulated AKT phosphorylation, compared to imatinib” value is recorded as “lower IC50 concentrations compared to imatinib”.

`COc1cc(-c2cncc(N[C@@H](C)c3cccc(NC(=O)c4cncc(C)c4)c3)n2)ccc1C` [PK10569]: the “IC50 for inhibiting PDGFBB stimulated AKT phosphorylation, compared to imatinib” value in experiment [4] is recorded as “lower IC50 concentrations compared to imatinib”.

In the case of `COc1ccc(-c2cncc(N[C@@H](C)c3cccc(NC(=O)c4cncc(C)c4)c3)n2)cc1OC` [PK10571], in experiment [1], the “PDGFBB stimulated ppERK1 formation” value is “effective”. In addition, in experiment [1] (1 uM and 10 uM), the “decreasing PDGF BB stimulated ppERK1 and ppERK2, compared to imatinib” value is “more effective”. Moreover, in experiment [1] (PDGFAA or PDGFBB stimulation (10 ng/ml), 1 uM and 10 uM), the “ratio diphosphorylated ERK2 to total ERK2 (ppERK2/ERK2)” value is on record as “significantly decreased”. The “ratio diphosphorylated ERK1 to total ERK1 (ppERK1/ERK1)” value in experiment [1] (PDGFAA or PDGFBB stimulation, 1 μM and 10 μM) is “significantly decreased”. In addition, the “decreasing PDGF AA stimulated ppERK1 and ppERK2 formation” value in experiment [2] is reported as “equally effective”. For the same molecule, the “IC50 for inhibiting PDGFBB stimulated AKT phosphorylation, compared to imatinib” value in experiment [4] is listed as “lower IC50 concentrations compared to imatinib”.

Source of the values: patent publication US9815815B2, “Non-selective kinase inhibitors” (GILEAD SCIENCES, INC., priority 2013, dated 2017).
